# Test results as given in patent publication US20220054513A1, “COMBINATION COMPOSITIONS COMPRISING A BETA-LACTAMASE INHIBITOR” (VenatoRx Pharmaceuticals, Inc., priority 2018, published 2022).
# Read-outs that look alike come from different tables or passages of the source.
# Columns and labels:
# [1] = test system: MDR-Acinetobacter; assay: broth microdilution MIC of cefiderocol +/- Compound 1 in IDM, panel of 40 MDR Acinetobacter; assay type: cell-based, A. baumannii; conditions: for MIC: read-out: Minimum inhibitory concentration (MIC)
# [2] = test system: β-lactamase expressing K. pneumoniae; assay: broth microdilution MIC of cefiderocol +/- Compound 1, K. pneumoniae strains; assay type: cell-based; conditions: Klebsiella pneumoniae
# [3] = test system: β-lactamase expressing Enterobacteriaceae; assay: broth microdilution MIC of cefiderocol +/- Compound 1, panel of 30 Enterobacteriaceae strains (MIC50/MIC90); assay type: cell-based
# [4] = test system: β-lactamase expressing E. coli; assay: broth microdilution MIC of cefiderocol +/- Compound 1, E. coli strains; assay type: cell-based; conditions: Escherichia coli
# [5] = test system: β-lactamase expressing P. mirabilis; assay: broth microdilution MIC of cefiderocol +/- Compound 1, P. mirabilis strain; assay type: cell-based; conditions: Proteus mirabilis, read-out: Minimum inhibitory concentration (MIC), P. mirabilis CDC-159 (NDM)
# [6] = test system: metallo- and serine-β-lactamase expressing CRE; assay: checkerboard assay of cefiderocol and Compound 1 in IDM, 22 CRE isolates; assay type: cell-based, Enterobacteriaceae; conditions: Compound 1 0 μg/mL
# [7] = Acinetobacter baumannii, panel of 40 MDR Acinetobacter, IDM
compound,measurement,setting,value
"CC(C)(O/N=C(\C(=O)N[C@@H]1C(=O)N2C(C(=O)[O-])=C(C[N+]3(CCNC(=O)c4ccc(O)c(O)c4Cl)CCCC3)CS[C@H]12)c1csc(N)n1)C(=O)O [FDC, cefiderocol]",Minimum inhibitory concentration (MIC),"[1]; A. baumannii 157076, IDM",0.125 µg/mL
same,Minimum inhibitory concentration (MIC),"[1]; A. baumannii 157078, IDM",0.125 µg/mL
same,Minimum inhibitory concentration (MIC),"[1]; A. baumannii 161761, IDM",0.125 µg/mL
same,Minimum inhibitory concentration (MIC),"[1]; A. baumannii 163264, IDM",0.125 µg/mL
same,Minimum inhibitory concentration (MIC),"[1]; A. baumannii 164890, IDM",0.125 µg/mL
same,Minimum inhibitory concentration (MIC),"[1]; A. baumannii 164891, IDM",0.125 µg/mL
same,Minimum inhibitory concentration (MIC),"[1]; A. baumannii 165039, IDM",0.125 µg/mL
same,Minimum inhibitory concentration (MIC),"[1]; A. baumannii CDC-0056, IDM",0.125 µg/mL
same,MIC,"[1]; Acinetobacter baumannii, A. baumannii 0045, IDM",0.5 µg/mL
same,MIC,"[1]; Acinetobacter baumannii, A. baumannii 157070, IDM",0.25 µg/mL
same,MIC,"[1]; Acinetobacter baumannii, A. baumannii 157071, IDM",0.03 µg/mL
same,MIC,"[1]; Acinetobacter baumannii, A. baumannii 157072, IDM",0.25 µg/mL
same,MIC,"[1]; Acinetobacter baumannii, A. baumannii 157074, IDM",0.06 µg/mL
same,MIC,"[1]; Acinetobacter baumannii, A. baumannii 157079, IDM",0.5 µg/mL
same,MIC,"[1]; Acinetobacter baumannii, A. baumannii 157865, IDM",4 µg/mL
same,MIC,"[1]; Acinetobacter baumannii, A. baumannii 161754, IDM",0.25 µg/mL
same,MIC,"[1]; Acinetobacter baumannii, A. baumannii 161763, IDM",0.5 µg/mL
same,MIC,"[1]; Acinetobacter baumannii, A. baumannii 163169, IDM",0.03 µg/mL
same,MIC,"[1]; Acinetobacter baumannii, A. baumannii 164899, IDM",0.25 µg/mL
same,MIC,"[1]; Acinetobacter baumannii, A. baumannii CDC-0033, IDM",0.5 µg/mL
same,MIC,"[1]; Acinetobacter baumannii, A. baumannii CDC-0035, IDM",0.25 µg/mL
same,MIC,"[1]; Acinetobacter baumannii, A. baumannii CDC-0036, IDM",1 µg/mL
same,MIC,"[1]; Acinetobacter baumannii, A. baumannii CDC-0037, IDM",4 µg/mL
same,MIC,"[1]; Acinetobacter baumannii, A. baumannii CDC-0052, IDM",8 µg/mL
same,MIC,"[1]; Acinetobacter baumannii, A. baumannii CDC-0063, IDM",0.5 µg/mL
same,MIC,"[1]; Acinetobacter baumannii, A. baumannii CDC-0070, IDM",0.25 µg/mL
same,MIC,"[1]; Acinetobacter baumannii, A. baumannii CDC-0078, IDM",0.5 µg/mL
same,MIC,"[1]; Acinetobacter baumannii, A. baumannii CDC-0083, IDM",1 µg/mL
same,MIC,"[1]; Acinetobacter baumannii, A. baumannii CDC-0088, IDM",8.1 µg/mL
same,MIC,"[1]; Acinetobacter baumannii, A. baumannii CDC-0101, IDM",0.06 µg/mL
same,MIC,"[1]; Acinetobacter baumannii, A. baumannii CDC-0102, IDM",1 µg/mL
same,MIC,"[1]; Acinetobacter baumannii, A. baumannii GM235, IDM",1 µg/mL
same,MIC,"[1]; Acinetobacter baumannii, A. baumannii GM236, IDM",0.03 µg/mL
same,MIC,"[1]; Acinetobacter baumannii, A. baumannii GM237, IDM",0.25 µg/mL
same,MIC,"[1]; Acinetobacter baumannii, A. baumannii GM238, IDM",0.25 µg/mL
same,MIC,"[1]; Acinetobacter baumannii, A. baumannii GM239, IDM",2 µg/mL
same,MIC,"[1]; Acinetobacter baumannii, A. baumannii SI-141, IDM",4 µg/mL
same,MIC,"[1]; Acinetobacter baumannii, ATCC17978, A. baumannii ATCC 17978, IDM",0.25 µg/mL
same,MIC,"[1]; Acinetobacter baumannii, NCTC13301, A. baumannii NCTC 13301, IDM",1 µg/mL
same,MIC,[1]; Acinetobacter baumannii,0.125 µg/mL
same,MIC50,[1]; [7],0.25 µg/mL
same,MIC90,[1]; [7],4 µg/mL
same,MIC,"[2]; read-out: Minimum inhibitory concentration (MIC), K. pneummoniae CDC-34 (IMP), IDM",0.125 µg/mL
same,MIC,"[2]; read-out: Minimum inhibitory concentration (MIC), K. pneummoniae CDC-34 (IMP), MHBII",2 µg/mL
same,MIC,"[2]; read-out: Minimum inhibitory concentration (MIC), K. pneummoniae CDC-40 (VIM), IDM",1 µg/mL
same,MIC,"[2]; read-out: Minimum inhibitory concentration (MIC), K. pneummoniae CDC-40 (VIM), MHBII",2 µg/mL
same,MIC,"[2]; read-out: Minimum inhibitory concentration (MIC), K. pneummoniae CDC-41 (NDM), IDM",8 µg/mL
same,MIC,"[2]; read-out: Minimum inhibitory concentration (MIC), K. pneummoniae CDC-41 (NDM), MHBII",128 µg/mL
same,MIC,"[2]; read-out: Minimum inhibitory concentration (MIC), K. pneummoniae CDC-140 (OXA-181), IDM",0.25 µg/mL
same,MIC,"[2]; read-out: Minimum inhibitory concentration (MIC), K. pneummoniae CDC-140 (OXA-181), MHBII",0.5 µg/mL
same,MIC,"[2]; read-out: Minimum inhibitory concentration (MIC), K. pneummoniae CDC-153 (NDM, OXA-232), IDM",0.06 µg/mL
same,MIC,"[2]; read-out: Minimum inhibitory concentration (MIC), K. pneummoniae CDC-153 (NDM, OXA-232), MHBII",32 µg/mL
same,MIC,"[2]; read-out: Minimum inhibitory concentration (MIC), K. pneumoniae 847204 (KPC-2), IDM",0.5 µg/mL
same,MIC,"[2]; read-out: Minimum inhibitory concentration (MIC), K. pneumoniae 847204 (KPC-2), MHBII",16 µg/mL
same,MIC,"[2]; read-out: Minimum inhibitory concentration (MIC), K. pneumoniae 847375 (SHV-12, KPC-2), IDM",2 µg/mL
same,MIC,"[2]; read-out: Minimum inhibitory concentration (MIC), K. pneumoniae 847375 (SHV-12, KPC-2), MHBII",32 µg/mL
same,MIC,"[2]; read-out: Minimum inhibitory concentration (MIC), K. pneumoniae 847747 (CTX-M-2, KPC), IDM",0.125 µg/mL
same,MIC,"[2]; read-out: Minimum inhibitory concentration (MIC), K. pneumoniae 847747 (CTX-M-2, KPC), MHBII",8 µg/mL
same,MIC,"[2]; read-out: Minimum inhibitory concentration (MIC), K. pneumoniae KIRK (OXA-162), IDM",0.25 µg/mL
same,MIC,"[2]; read-out: Minimum inhibitory concentration (MIC), K. pneumoniae KIRK (OXA-162), MHBII",32 µg/mL
same,MIC,"[2]; read-out: Minimum inhibitory concentration (MIC), K. pneumoniae KPC157 (KPC-3), IDM",0.5 µg/mL
same,MIC,"[2]; read-out: Minimum inhibitory concentration (MIC), K. pneumoniae KPC157 (KPC-3), MHBII",8 µg/mL
same,MIC,"[2]; read-out: Minimum inhibitory concentration (MIC), K. pneumoniae KPC261 (KPC-2), IDM",0.5 µg/mL
same,MIC,"[2]; read-out: Minimum inhibitory concentration (MIC), K. pneumoniae KPC261 (KPC-2), MHBII",16 µg/mL
same,MIC,"[2]; read-out: Minimum inhibitory concentration (MIC), K. pneumoniae OMAN 13 (NDM-1), IDM",2 µg/mL
same,MIC,"[2]; read-out: Minimum inhibitory concentration (MIC), K. pneumoniae OMAN 13 (NDM-1), MHBII",32 µg/mL
same,MIC,"[2]; read-out: Minimum inhibitory concentration (MIC), K. pneumoniae SI-117 (VIM-1), IDM",4 µg/mL
same,MIC,"[2]; read-out: Minimum inhibitory concentration (MIC), K. pneumoniae SI-117 (VIM-1), MHBII",16 µg/mL
same,MIC50,[3]; IDM,0.5 µg/mL
same,MIC90,[3]; IDM,4 µg/mL
same,MIC50,[3]; MHBII,4 µg/mL
same,MIC90,[3]; MHBII,32 µg/mL
same,MIC,"[4]; read-out: Minimum inhibitory concentration (MIC), E. coli 128 (AmpC, SHV-12, TOHO-2, TEM-1), IDM",0.5 µg/mL
same,MIC,"[4]; read-out: Minimum inhibitory concentration (MIC), E. coli 128 (AmpC, SHV-12, TOHO-2, TEM-1), MHBII",2 µg/mL
same,MIC,"[4]; read-out: Minimum inhibitory concentration (MIC), E. coli 3073 (AmpC, CTX-M3), IDM",0.5 µg/mL
same,MIC,"[4]; read-out: Minimum inhibitory concentration (MIC), E. coli 3073 (AmpC, CTX-M3), MHBII",8 µg/mL
same,MIC,"[4]; read-out: Minimum inhibitory concentration (MIC), E. coli 3327 (TEM-1, SHV-12), IDM",0.125 µg/mL
same,MIC,"[4]; read-out: Minimum inhibitory concentration (MIC), E. coli 3327 (TEM-1, SHV-12), MHBII",0.5 µg/mL
same,MIC,"[4]; read-out: Minimum inhibitory concentration (MIC), E. coli 786978 (KPC 2), IDM",0.25 µg/mL
same,MIC,"[4]; read-out: Minimum inhibitory concentration (MIC), E. coli 786978 (KPC 2), MHBII",4 µg/mL
same,MIC,"[4]; read-out: Minimum inhibitory concentration (MIC), E. coli 787112 (OXA 48), IDM",64 µg/mL
same,MIC,"[4]; read-out: Minimum inhibitory concentration (MIC), E. coli 787112 (OXA 48), MHBII",64 µg/mL
same,MIC,"[4]; read-out: Minimum inhibitory concentration (MIC), E. coli CDC-61 (KPC-3 TEM-1), IDM",0.125 µg/mL
same,MIC,"[4]; read-out: Minimum inhibitory concentration (MIC), E. coli CDC-61 (KPC-3 TEM-1), MHBII",0.25 µg/mL
same,MIC,"[4]; read-out: Minimum inhibitory concentration (MIC), E. coli CDC-114 (KPC-3), IDM",0.5 µg/mL
same,MIC,"[4]; read-out: Minimum inhibitory concentration (MIC), E. coli CDC-114 (KPC-3), MHBII",4 µg/mL
same,MIC,"[4]; read-out: Minimum inhibitory concentration (MIC), E. coli CDC-150 (NDM-5), IDM",4 µg/mL
same,MIC,"[4]; read-out: Minimum inhibitory concentration (MIC), E. coli CDC-150 (NDM-5), MHBII",128 µg/mL
same,MIC,"[4]; read-out: Minimum inhibitory concentration (MIC), E. coli GUE 131 (NDM-1), IDM",1 µg/mL
same,MIC,"[4]; read-out: Minimum inhibitory concentration (MIC), E. coli GUE 131 (NDM-1), MHBII",2 µg/mL
same,MIC,"[4]; read-out: Minimum inhibitory concentration (MIC), E. coli SI-151 (VIM-1), IDM",0.125 µg/mL
same,MIC,"[4]; read-out: Minimum inhibitory concentration (MIC), E. coli SI-151 (VIM-1), MHBII",0.5 µg/mL
same,MIC,"[4]; read-out: Minimum inhibitory concentration (MIC), E. coli SI-152 (NDM-1), IDM",0.125 µg/mL
same,MIC,"[4]; read-out: Minimum inhibitory concentration (MIC), E. coli SI-152 (NDM-1), MHBII",0.125 µg/mL
same,MIC,"[4]; read-out: Minimum inhibitory concentration (MIC), E. coli SI-155S (VIM-1), IDM",1 µg/mL
same,MIC,"[4]; read-out: Minimum inhibitory concentration (MIC), E. coli SI-155S (VIM-1), MHBII",2 µg/mL
same,MIC,"[4]; read-out: Minimum inhibitory concentration (MIC), E. coli SI-P026TC (CMY-2, TEM-1), IDM",0.125 µg/mL
same,MIC,"[4]; read-out: Minimum inhibitory concentration (MIC), E. coli SI-P026TC (CMY-2, TEM-1), MHBII",0.25 µg/mL
same,MIC,[5]; IDM,4 µg/mL
same,MIC,[5]; MHBII,32 µg/mL
same,% of strains inhibited,[6]; cefiderocol 0.06 μg/mL,5%
same,% of strains inhibited,[6]; cefiderocol 0.125 μg/mL,5%
same,% of strains inhibited,[6]; cefiderocol 0.25 μg/mL,5%
same,% of strains inhibited,[6]; cefiderocol 0.5 μg/mL,15%
same,% of strains inhibited,[6]; cefiderocol 1 μg/mL,20%
same,% of strains inhibited,[6]; cefiderocol 2 μg/mL,60%
same,% of strains inhibited,[6]; cefiderocol 4 μg/mL,75%
same,% of strains inhibited,[6]; cefiderocol 8 μg/mL,90%
same,% of strains inhibited,[6]; cefiderocol 16 μg/mL,90%
same,% of strains inhibited,[6]; cefiderocol 32 μg/mL,95%
